Source: patent US8334298B2, “Treatment or prevention of ovarian hyperstimulation syndrome (OHSS) using a dopamine agonist” (Ferring International Center S.A., priority 2005, dated 2012)
Values joined by “and” are separate entries in the source; they are usually repeats but may differ in a detail not shown here. Equal values may be shown once.

Key:
OHSS rats [1] = assay: Dose response of quinagolide on vascular permeability in OHSS rats, reassessment (Example 5); format: in vivo, Wistar rats; settings: single rat
Description: (§1) Inducing OHSS manifestations. A total of 96 female immature Wistar rats (Harlan Iberica, Sant Feliu de Codina, Barcelona, SPAIN), weighing from 42-48 grams at the beginning of these experiments (day 22), were used to carry out the studies disclosed in Examples 4 and 5. They were injected subcutaneously (s.c) with 10 IU of Pregnant Mare's Serum Gonadotropin (PMSG) (Sigma) for 4 consecutive days (days 22-25), followed by administered intraperitoneally (i.p.) with 30 IU of hCG on the fifth day (day 26) in order to induce OHSS clinical manifestations.
(§2) Measuring vascular permeability (VP). VP was used as an index to estimate and compare the degree of development of the illness. VP was measured in all animals 48-56 hours after hCG administration, following methodology previously described (Gomez et al., supra). Briefly, 0.2 ml Evans Blue dye, 0.05 M, was injected through the femoral vein. After 30 minutes, the peritoneal cavity was irrigated with 5 ml saline, pH 6, 22° C., and massaged for 30 seconds to recover extravasated dye. The peritoneal fluid was recovered in 13 ml tubes containing 0.1 ml NaOH. The tubes were centrifuged at 900×g for 12 minutes to avoid protein interference. The supernatant was filtered through 0.22 um filters in order to eliminate ascitic protein/fibrin mucus which could interfere in the posterior measurements. Finally the absorbance of the extravasated dye was measured at 595 nm using a spectrophotometer. Average and average deviations in each group (see below) were calculated. VP was expressed as μg extravasated Evans Blue dye/100 g body weight in each animal.
For Example 5, three quinagolide doses were tested: 5, […] 250 μg/kg/day. The 250 μg/kg/day dose was tested in order to determine if the maximal potential inhibitory effect of quinagolide had been reached in Example 4.
A total of 26 rats were used for this study. All 26 rats were administered PMSG/hCG to induce OHSS symptoms, as described above. Quinagolide was administered to 18 rats, divided into three groups of six rats per group. The 18 rats that received quinagolide were used as a dose response test group. […] A positive control group was not employed for this Example. The specific details of the dosing regimen for each group is as follows:
Vehicle control group (quinagolide 0 μg/kg) (n=8). Eight rats were implanted with prolactin placebo pellets, 5 days release, between 10:00 to 11:00 on day 26, just following hCG injection (see General Procedures, above). Six hours after prolactin placebo pellet implantation, the rats in this group were orally administered vehicle solution (1:6 alcohol:water mixture) (without quinagolide). They received another oral administration of vehicle solution 24 hours later. Experimental groups (quinagolide at 5, 62.5, 250 μg/kg/day to 3 test groups of rats) (n=6 in each test group). These rats were implanted with prolactin pellets, 5 days release, between 10:00 to 11:00 am on day 26, just following hCG injection (see General Procedures, above). […] In this manner, the desired 5, 62.5, and 250 μg/kg doses to be assayed were achieved. Twenty four hours later, the rats in this group were administered with another dose of the same amounts of quinagolide. Reconstitution and dilution process to reach appropriate quinagolide doses for oral administration. A commercial drug, Norprolac®, was used as the source of quinagolide for this Example. Four Norprolac® pills, containing 150 μg quinagolide each (600 μg quinagolide total) were diluted in 6250 μl of distilled water. A volume of 1250 μl of alcohol was added to reach a vehicle solution (1:6 alcohol:water mixture) containing 80 μg quinagolide per ml solution. A 1.5 ml aliquot was serially diluted (1:4, 1:12.5) in the same vehicle solution. A 250 μl oral administration of each quinagolide solution was given to the appropriate rat in each group on the same day hCG was administered (day 26), as described. […]

OHSS rats [2] = assay: Dose response of quinagolide on vascular permeability in OHSS rats (Example 4); format: in vivo, Wistar rats; settings: single rat, 48-56 h after hCG
Description: as §1, §2
A total of 70 rats were used for this study. All 70 rats were administered PMSG/hCG to induce OHSS symptoms, as described above. Quinagolide (batch no. 1010003004; supplied by Ferring Labs) was administered to 56 rats. The 56 rats that received quinagolide were used as a dose response test group. […] Cabergoline (Dostinex®) was administered to 6 rats as a positive control. The specific details of the dosing regimen for each group is as follows:
Vehicle control group (quinagolide 0 μg/kg) (n=8). Eight rats were implanted with prolactin placebo pellets, 5 days release, between 10:00 to 11:00 on day 26, just following hCG injection (see General Procedures, above). Six hours after pellet implantation, the rats in this group were orally administered vehicle solution (1:6 alcohol in water mixture) (without quinagolide). They received another oral vehicle administration of vehicle solution 24 hours later. Experimental groups (quinagolide at 0.1, 0.3, 1, 3, 10, 25, 50 μg/kg/day to 7 test groups of rats) (n=8 in each test group). The rats in these groups were implanted with prolactin pellets, 5 days release, between 10:00 to 11:00 on day 26, just following hCG injection (see General Procedures, above). […] In this manner, the desired 0.1, 0.3, 1, 3, 10, 25, 50 μg/kg doses to be assayed were achieved. Twenty four hours later, the rats in this group were administered with another dose of the same amounts of quinagolide. Positive (cabergoline) control group (n=6). These six rats were implanted with prolactin pellets, 5 days release, between 10:00 to 11:00 .m on day 26, just following hCG injection. […] Twenty four hours later, the rats in this group were administered with another dose of the same amount of cabergoline. […] Reconstitution and dilution process to reach appropriate quinagolide doses for oral administration. Appropriate doses were prepared fresh just prior to being administered (on day 26). A single quinagolide vial, containing approximately 2.30-2.30 mg quinagolide, was employed for each single set of animals. For each solution, approximately 2.30-2.30 mg quinagolide was diluted in a vehicle solution (1:6 alcohol:water mixture) to achieve a stock concentration of 100 μg quinagolide per ml solution. […]

OHSS rats [3] = assay: Vascular permeability (Evans Blue) in OHSS rats treated with bromocriptine (Example 1); format: in vivo, Wistar rats; settings: VP 48 h after hCG
Description: Drug Treatment. Immature female Wistar rats were employed. In the OHSS group (n=8), Pregnant Mare's Serum Gonadotropin (PMSG) was administered at 10 IU/day for 4 days, followed by hCG (30 IU) on the fifth day. In the mild (i.e., ovarian stimulation) group (n=8), 10 IU of PMSG was administered followed 2 days later by administration of 10 IU of hCG. In the control group, 1 IU of PMSG was administered followed by 1 IU of hCG 48 hrs later. Vascular Permeability Measurement. Vascular permeability was measured 48 hours following hCG administration. 0.2 ml of 5 mM Evans Blue stain was injected via the femoral vein. After 30 minutes, the peritoneal cavity was irrigated with saline. Light absorption was measured in the recovered fluid at 595 nm and the vascular permeability was expressed as μg Evans blue/100 g body weight. In a second series of experiments, varying doses of bromocriptine were administered in a group of rats induced to develop OHSS with 40 IU of PMSG followed by 30 IU of hCG. 1.6, 4.0, 10.0 and 25.0 mg/kg of bromocriptine were intraperitoneally administered on the day of hCG administration and 24 hours later. VP was measured 48 hours following hCG administration.

[4] = test system: patients with treatment-resistant OHSS; settings: oral docarpamine, 27 patients; cited from earlier work
[5] = quinagolide 5 μg/kg/day oral (Norprolac pills)
[6] = quinagolide 250 μg/kg/day oral (Norprolac pills)
[7] = quinagolide 62. μg/kg/day oral (Norprolac pills)

## CCCN1CC(NS(=O)(=O)N(CC)CC)CC2Cc3c(O)cccc3CC21 (stereo not drawn) [Quinagolide, quinagolide]
OHSS rats [1]; [5]
  Absorbance at 595 nm: 0.622 and 0.924 and 0.491 and 0.181 and 0.242 and 0.335
  μg EB per 100 g body weight: 38.74 μg EB per 100 g body weight and 55.57 μg EB per 100 g body weight and 28.74 μg EB per 100 g body weight and 10.96 μg EB per 100 g body weight and 14.76 μg EB per 100 g body weight and 22.13 μg EB per 100 g body weight
  μg Evans Blue (Abs * 4360): 2711.92 µg and 4028.64 µg and 2140.76 µg and 789.16 µg and 1055.12 µg and 1460.6 µg
OHSS rats [1]; [6]
  Absorbance at 595 nm: 0.03 and 0.036 and 0.1709 and 0.021 and 0.103 and 0.056
  μg EB per 100 g body weight: 1.721 μg EB per 100 g body weight and 2.854 μg EB per 100 g body weight and 10.88 μg EB per 100 g body weight and 1.356 μg EB per 100 g body weight and 6.703 μg EB per 100 g body weight and 3.513 μg EB per 100 g body weight
  μg Evans Blue (Abs * 4360): 130.8 µg and 156.96 µg and 745.124 µg and 91.56 µg and 449.08 µg and 244.16 µg
OHSS rats [1]; [7]
  Absorbance at 595 nm: 0.115 and 0.125 and 0.256 and 0.209 and 0.299 and 0.201
  μg EB per 100 g body weight: 7.214 μg EB per 100 g body weight and 7.517 μg EB per 100 g body weight and 16.06 μg EB per 100 g body weight and 13.3 μg EB per 100 g body weight and 19.03 μg EB per 100 g body weight and 12.26 μg EB per 100 g body weight
  μg Evans Blue (Abs * 4360): 501.4 µg and 545 µg and 1116.16 µg and 911.24 µg and 1303.64 µg and 876.36 µg
OHSS rats [2]; quinagolide 0.1 μg/kg/day oral
  Absorbance at 595 nm: 0.081 and 0.646 and 0.338 and 0.35
  μg EB per 100 g body weight: 4.871 μg EB per 100 g body weight and 37.81 μg EB per 100 g body weight and 21.05 μg EB per 100 g body weight and 21.19 μg EB per 100 g body weight
  μg Evans Blue (Abs * 4360): 353.16 µg and 2816.56 µg and 1473.68 µg and 1526 µg
OHSS rats [2]; quinagolide 0.3 μg/kg/day oral
  Absorbance at 595 nm: 0.28 and 0.547 and 0.768 and 0.342 and 0.444
  μg EB per 100 g body weight: 16.96 μg EB per 100 g body weight and 36.69 μg EB per 100 g body weight and 47.84 μg EB per 100 g body weight and 20.57 μg EB per 100 g body weight and 25.8112 μg EB per 100 g body weight
  μg Evans Blue (Abs * 4360): 1220.8 µg and 2384.92 µg and 3348.48 µg and 1491.12 µg and 1935.84 µg
OHSS rats [2]; quinagolide 1 μg/kg/day oral
  Absorbance at 595 nm: 0.396 and 0.341 and 0.389 and 0.424 and 0.256 and 0.205
  μg EB per 100 g body weight: 27.85 μg EB per 100 g body weight and 22.53 μg EB per 100 g body weight and 22.32 μg EB per 100 g body weight and 26.41 μg EB per 100 g body weight and 14.31 μg EB per 100 g body weight and 12.33 μg EB per 100 g body weight
  μg Evans Blue (Abs * 4360): 1726.56 µg and 1486.76 µg and 1696.04 µg and 1848.64 µg and 1116.16 µg and 893.8 µg
OHSS rats [2]; quinagolide 3 μg/kg/day oral
  Absorbance at 595 nm: 0.09 and 0.394 and 0.181 and 0.584 and 0.369 and 0.581
  μg EB per 100 g body weight: 5.945 μg EB per 100 g body weight and 26.84 μg EB per 100 g body weight and 9.927 μg EB per 100 g body weight and 37.17 μg EB per 100 g body weight and 23.32 μg EB per 100 g body weight and 31.08 μg EB per 100 g body weight
  μg Evans Blue (Abs * 4360): 392.4 µg and 1717.84 µg and 789.16 µg and 2546.24 µg and 1608.84 µg and 2533.16 µg
OHSS rats [2]; quinagolide 10 μg/kg/day oral
  Absorbance at 595 nm: 0.418 and 0.145 and 0.188 and 0.328 and 0.626
  μg EB per 100 g body weight: 24.63 μg EB per 100 g body weight and 8.543 μg EB per 100 g body weight and 12.42 μg EB per 100 g body weight and 19.73 μg EB per 100 g body weight and 37.39 μg EB per 100 g body weight
  μg Evans Blue (Abs * 4360): 1822.48 µg and 632.2 µg and 819.68 µg and 1430.08 µg and 2729.36 µg
OHSS rats [2]; quinagolide 25 μg/kg/day oral
  Absorbance at 595 nm: 0.299 and 0.311 and 0.042 and 0.669 and 0.08
  μg EB per 100 g body weight: 19.17 μg EB per 100 g body weight and 19.23 μg EB per 100 g body weight and 2.654 μg EB per 100 g body weight and 40.51 μg EB per 100 g body weight and 4.501 μg EB per 100 g body weight
  μg Evans Blue (Abs * 4360): 1303.64 µg and 1355.96 µg and 183.12 µg and 2916.84 µg and 348.8 µg
OHSS rats [2]; quinagolide 50 μg/kg/day oral
  Absorbance at 595 nm: 0.179 and 0.048 and 0.151 and 0.358 and 0.09 and 0.215
  μg EB per 100 g body weight: 10.84 μg EB per 100 g body weight and 2.847 μg EB per 100 g body weight and 9.144 μg EB per 100 g body weight and 22.95 μg EB per 100 g body weight and 5.267 μg EB per 100 g body weight and 12.5 μg EB per 100 g body weight
  μg Evans Blue (Abs * 4360): 780.44 µg and 209.28 µg and 658.36 µg and 1560.88 µg and 392.4 µg and 937.4 µg

## CC(C)C[C@H]1C(=O)N2CCC[C@H]2[C@]2(O)O[C@](NC(=O)[C@@H]3C=C4c5cccc6[nH]c(Br)c(c56)C[C@H]4N(C)C3)(C(C)C)C(=O)N12 [bromocriptine]
OHSS rats [3]; 1.6 mg bromocriptine i.p. on day of hCG and 24 h later, p=0.04
  vascular permeability: 15.3±3.3 μg Evans Blue/100 g body weight
OHSS rats [3]; 4 mg bromocriptine i.p. on day of hCG and 24 h later, p=0.04
  vascular permeability: 14.2±2.2 μg Evans Blue/100 g body weight
OHSS rats [3]; 10 mg bromocriptine i.p. on day of hCG and 24 h later, p=0.009
  vascular permeability: 10.1±2.6 μg Evans Blue/100 g body weight
OHSS rats [3]; 25 mg bromocriptine i.p. on day of hCG and 24 h later, p=0.001
  vascular permeability: 8.0±1.9 μg Evans Blue/100 g body weight

## CCOC(=O)Oc1ccc(CCNC(=O)[C@H](CCSC)NC(C)=O)cc1OC(=O)OCC [docarpamine]
[4]
  ascites: ascites was decreased
  diuresis: Diuresis was increased in some women
